The target of the assay is T1, human M4 receptor (Homo sapiens, UniProt P08173).
T1 construct: expressed in transfected cells; host or cells: CHO cells
T1 sequence (P08173 1-479): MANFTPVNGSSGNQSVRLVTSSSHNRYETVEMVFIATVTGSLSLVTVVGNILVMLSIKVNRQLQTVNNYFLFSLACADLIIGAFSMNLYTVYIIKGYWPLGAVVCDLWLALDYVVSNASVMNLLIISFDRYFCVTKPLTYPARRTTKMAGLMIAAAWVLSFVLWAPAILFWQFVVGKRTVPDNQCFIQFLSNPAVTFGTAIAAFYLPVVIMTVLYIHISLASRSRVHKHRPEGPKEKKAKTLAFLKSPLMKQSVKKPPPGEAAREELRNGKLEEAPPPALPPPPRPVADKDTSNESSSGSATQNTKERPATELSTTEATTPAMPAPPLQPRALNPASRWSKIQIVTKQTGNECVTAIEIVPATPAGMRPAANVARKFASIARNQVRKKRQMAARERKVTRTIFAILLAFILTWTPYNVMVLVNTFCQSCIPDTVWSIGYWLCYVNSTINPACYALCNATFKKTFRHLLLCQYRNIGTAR
In words: Radioligand ([3H]N-methylscopolamine) binding assay, membranes from CHO cells expressing human M4 receptor. The following applies: Ki against human M4 receptor; membranes from CHO cells; tritiated N-methylscopolamine 1.5 nM; read-out: K. As to the method: Binding affinity (Ki) for the compounds was measured by inhibition of radioligand binding to membranes from CHO cells expressing human M4 receptor. Membranes were prepared by nitrogen cavitation and differential centrifugation as previously described (Hoare et al., Mol. Pharmacol. 2003 March; 63(3): 751-65). The radioligand employed was tritiated N-methylscopolamine, used at a concentration of 1.5 nM. A dose-response of twelve concentrations of compound was used, ranging from […]. The assay buffer was 50 mM HEPES, 100 mM NaCl, 5 mM MgCl2, 1 mM ethylenediaminetetraacetic acid, pH-adjusted to pH 7.4. Membranes, radioligand and compound were incubated together for 90 minutes at 37° C., in a total volume of 150 μL in a 96-well plate. Receptor-bound radioligand was then collected by harvesting the assay over glass fiber filters pretreated with polyethylenimine to trap the cell membranes, using rapid vacuum filtration. Harvesting and radioactivity counting was conducted as previously described (see, e.g., Hoare et al., Mol. Pharmacol. 2003 63(3):751-65); Erratum at Mol. Pharmacol. 2005 July; 68(1): 260).
Turning to `C[C@@H]1CN(c2ncc(C(F)(F)F)cn2)C[C@@H](C)N1C(=O)NCC1CC2(C1)CN(Cc1ccccc1)C2` [Compound 68, (2R,6R)-N-({2-benzyl-2-azaspiro[3.3]heptan-6-yl}methyl)-2,6-dimethyl-4-[5-(trifluoromethyl)pyrimidin-2-yl]piperazine-1-carboxamide], the Ki was 0.01 to 0.1 µM.
For `C[C@@H]1CN(c2ncc(C(F)(F)F)cn2)C[C@H](C)N1C(=O)NCC1CC2(C1)CN(Cc1ccccc1)C2` [Compound 97, (2R,6S)-N-({2-benzyl-2-azaspiro[3.3]heptna-6-yl}methyl)-2,6-dimethyl-4-[5-(trifluoromethyl)pyrimidin-2-yl]piperazine-1-carboxamide], the Ki lay in the range of 0.01 to 0.1 µM.
In the case of `O=C(OC1CC2(C1)CN(Cc1ccccc1)C2)N1CCN(c2cc(F)c(F)c(F)c2)CC1` [Compound 105, 2-benzyl-2-azaspiro[3.3]heptan-6-yl 4-(3,4,5-trifluorophenyl)piperazine-1-carboxylate], the Ki fell in the range of 0.1 to 1 µM.
With `O=C(OC1CC2(C1)CN(Cc1ccccc1)C2)N1CCN(c2ccc(OC(F)(F)F)cc2)CC1` [Compound 108, 2-benzyl-2-azaspiro[3.3]heptan-6-yl 4-[4-(trifluoromethoxy)phenyl]piper-azine-1-carboxylate], the Ki is 0.1 to 1 µM.
Turning to `O=C(OC1CC2(C1)CN(Cc1ccccc1)C2)N1C2CC1CN(c1cnc(C(F)(F)F)cn1)C2` [Compound 110, 2-benzyl-2-azaspiro[3.3]heptan-6-yl 3-[5-(trifluoromethyl)pyrazin-2-yl]-3,6-diazabicyclo[3.1.1]heptane-6-carboxylate], the Ki is 0.1 to 1 µM.
As to `N#Cc1cnc(N2CC3CC(C2)N3C(=O)OC2CC3(C2)CN(Cc2ccccc2)C3)cn1` [Compound 111, 2-benzyl-2-azaspiro[3.3]heptan-6-yl 3-(5-cyanopyrazin-2-yl)-3,6-diazabicyclo[3.1.1]heptane-6-carboxylate], the Ki lay within 0.1 to 1 µM.
Regarding `C[C@H]1CN(C(=O)OC2CC3(C2)CN(Cc2ccccc2)C3)CCN1c1ncc(C#N)cn1` [Compound 119, 2-benzyl-2-azaspiro[3.3]heptan-6-yl (3S)-4-(5-cyanopyrimidin-2-yl)-3-methylpiperazine-1-carboxylate], the Ki lay in the range of 0.1 to 1 µM.
On to `O=C(OC1CC2(C1)CN(Cc1ccccc1)C2)N1CCN(c2ccc(C(F)(F)F)cn2)CC1` [Compound 121, 2-benzyl-2-azaspiro[3.3]heptan-6-yl 4-[5-(trifluoromethyl)pyridin-2-yl]piperazine-1-carboxylate], for which the Ki is 0.1 to 1 µM.
Then `C[C@H]1CN(C(=O)OC2CC3(C2)CN(Cc2ccccc2)C3)CCN1c1ncc(C(F)(F)F)cn1` [Compound 123, 2-benzyl-2-azaspiro[3.3]heptan-6-yl (3S)-3-methyl-4-[5-(trifluoromethyl)pyrimidin-2-yl]piperazine-1-carboxylate], with less than 0.01 µM.
Under `O=C(OC1CC2(C1)CN(Cc1ccccc1)C2)N1CCN(c2ccc(C(F)(F)F)cc2)CC1` [Compound 125, 2-benzyl-2-azaspiro[3.3]heptan-6-yl 4-[4-(trifluoromethyl)phenyl]pipera-zine-1-carboxylate] stands 0.1 to 1 µM; under `N#Cc1cc(C(F)(F)F)ccc1N1CCN(C(=O)OC2CC3(C2)CN(Cc2ccccc2)C3)CC1` [Compound 126, 2-benzyl-2-azaspiro[3.3]heptan-6-yl 4-[2-cyano-4-(trifluoromethyl)phenyl]pipera-zine-1-carboxylate], 0.1 to 1 µM.
In the case of `C[C@@H]1CN(c2ncc(C#N)cn2)C[C@H](C)N1C(=O)OC1CC2(C1)CN(Cc1ccccc1)C2` [Compound 130, 2-Benzyl-2-azaspiro[3.3]heptan-6-yl (2R,6S)-4-(5-cyanopyrimidin-2-yl)-2,6-dimethylpiperazine-1-carboxylate], the Ki was in the range of 0.01 to 0.1 µM.
For `C[C@@H]1CN(c2ncc(C(F)(F)F)cn2)CCN1C(=O)OC1CC2(C1)CN(Cc1ccccc1)C2` [Compound 132, 2-benzyl-2-azaspiro[3.3]heptan-6-yl (2R)-2-methyl-4-[5-(trifluoromethyl)pyrimidin-2-yl]piperazine-1-carboxylate], the Ki was less than 0.01 µM.
As for `C[C@@H]1CN(c2ncc(C(F)(F)F)cn2)CCN1C(=O)OCC1CC2(C1)CN(Cc1ccccc1)C2` [Compound 133, {2-benzyl-2-azaspiro[3.3]heptan-6-yl}methyl (2R)-2-methyl-4-[5-(trifluoromethyl)pyrimidin-2-yl]piperazine-1-carboxylate], the Ki lay in the range of 0.01 to 0.1 µM.
Then `C[C@@H]1CN(c2ncc(C(F)(F)F)cn2)[C@H](C)CN1C(=O)OC1CC2(C1)CN(Cc1ccccc1)C2` [Compound 135, 2-benzyl-2-azaspiro[3.3]heptan-6-yl (2R,5R)-2,5-dimethyl-4-[5-(trifluoromethyl)pyrimidin-2-yl]piperazine-1-carboxylate], with 0.01 to 0.1 µM; and `C[C@@H]1CN(c2ncc(C(F)(F)F)cn2)[C@@H](C)CN1C(=O)OC1CC2(C1)CN(Cc1ccccc1)C2` [Compound 136, 2-Benzyl-2-azaspiro[3.3]heptan-6-yl (2R,5S)-2,5-dimethyl-4-[5-(trifluoromethyl)pyrimidin-2-yl]piperazine-1-carboxylate], with less than 0.01 µM.
On to `C[C@@H]1CN(c2ncc(C#N)cn2)[C@@H](C)CN1C(=O)OC1CC2(C1)CN(Cc1ccccc1)C2` [Compound 138, 2-benzyl-2-azaspiro[3.3]heptan-6-yl (2R,5S)-4-(5-cyanopyrimidin-2-yl)-2,5-dimethylpiperazine-1-carboxylate], for which the Ki lay in the range of 0.01 to 0.1 µM.
Under `C[C@@H]1CN(c2ncc(C(F)(F)F)cn2)C[C@@H](C)N1C(=O)OC1CC2(C1)CN(Cc1ccccc1)C2` [Compound 139, 2-Benzyl-2-azaspiro[3.3]heptan-6-yl (2R,6R)-2,6-dimethyl-4-[5-(trifluoromethyl)pyrimidin-2-yl]piperazine-1-carboxylate] stands less than 0.01 µM.
As for `C[C@@H]1CN(c2cnc(C(F)(F)F)cn2)C[C@@H](C)N1C(=O)OC1CC2(C1)CN(Cc1ccccc1)C2` [Compound 142, 2-benzyl-2-azaspiro[3.3]heptan-6-yl (2R,6R)-2,6-dimethyl-4-[5-(trifluoromethyl)pyrazin-2-yl]piperazine-1-carboxylate], the Ki was 0.01 to 0.1 µM.
Under `C[C@@H]1CN(c2cnc(C(F)(F)F)cn2)C[C@@H](C)N1C(=O)OCC1CC2(C1)CN(Cc1ccccc1)C2` [Compound 143, {2-benzyl-2-azaspiro[3.3]heptan-6-yl}methyl (2R,6R)-2,6-dimethyl-4-[5-(trifluoromethyl)pyrazin-2-yl]piperazine-1-carboxylate] stands 0.1 to 1 µM; under `C[C@@H]1CN(c2ncc(C(F)(F)F)cn2)C[C@@H](C)N1C(=O)OCC1CC2(C1)CN(Cc1ccccc1)C2` [Compound 144, {2-benzyl-2-azaspiro[3.3]heptan-6-yl}methyl (2R,6R)-2,6-dimethyl-4-[5-(trifluoromethyl)pyrimidin-2-yl]piperazine-1-carboxylate], 0.01 to 0.1 µM.
Turning to `C[C@@H]1CN(c2ncc(C(F)(F)F)cn2)C[C@@H](C)N1C(=O)OC1CC2(C1)CN(CCC(C)(C)C)C2` [Compound 145, 2-(3,3-dimethylbutyl)-2-azaspiro[3.3]heptan-6-yl (2R,6R)-2,6-dimethyl-4-[5-(trifluoromethyl)pyrimidin-2-yl]piperazine-1-carboxylate], the Ki fell in the range of 0.1 to 1 µM.
On to `C[C@@H]1CN(c2ncc(C(F)(F)F)cn2)C[C@@H](C)N1C(=O)OC1CC2(C1)CN(CC(C)(C)C)C2` [Compound 146, 2-(2,2-dimethylpropyl)-2-azaspiro[3.3]heptan-6-yl (2R,6R)-2,6-dimethyl-4-[5-(trifluoromethyl)pyrimidin-2-yl]piperazine-1-carboxylate], for which the Ki lay in the range of 0.1 to 1 µM.
As to `C[C@@H]1CN(c2ncc(C(F)(F)F)cn2)C[C@H](C)N1C(=O)OC1CC2(C1)CN(CCC(C)(C)C)C2` [Compound 149, 2-(3,3-dimethylbutyl)-2-azaspiro[3.3]heptan-6-yl (2R,6S)-2,6-dimethyl-4-[5-(trifluoromethyl)pyrimidin-2-yl]piperaizne-1-carboxylate], the Ki lay in the range of 0.1 to 1 µM.
`C[C@@H]1CN(c2ncc(C(F)(F)F)cn2)C[C@H](C)N1C(=O)OC1CC2(C1)CN(CC1CC1(C)C)C2` (stereo partly drawn) [Compound 153, 2-[(2,2-dimethylcyclopropyl)methyl]-2-azaspiro[3.3]heptan-6-yl (2R,6S)-2,6-dimethyl-4-[5-(trifluoromethyl)pyrimidin-2-yl]piperazine-1-carboxylate]: the Ki was less than 0.01 µM.
As to `C[C@@H]1CN(c2ncc(C(F)(F)F)cn2)C[C@H](C)N1C(=O)OC1CC2(C1)CN(CC1CCCCC1)C2` [Compound 154, 2-(cyclohexylmethyl)-2-azaspiro[3.3]heptan-6-yl (2R,6S)-2,6-dimethyl-4-[5-(trifluoromethyl)pyrimidin-2-yl]piperazine-1-carboxylate], the Ki was 0.01 to 0.1 µM.

The values are drawn from patent US20230129359A1, “MUSCARINIC RECEPTOR 4 ANTAGONISTS AND METHODS OF USE” (Neurocrine Biosciences, Inc., priority 2020, published 2023).
